The record followed here is PubChem BioAssay AID493130 (Broad Institute, 2011).

Records with an inconclusive call do not appear. Active and inactive are the calls of the source.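 How the source made its calls: active means signal-lowering compounds whose fitted half-maximal concentration is at most ten times their highest tested dose; inconclusive means flat fit between -30 and -70%, or poor fit; inactive means flat within 30%, signal rising, or potency beyond limit.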

The first assay addresses POS-1 (Caenorhabditis elegans) binding to mex-3 RNA. The assay can be described thus: C. elegans POS-1 RNA interaction disruptors – biochemical, fluorescence polarization, cherry-picked samples, set 2, counter-screen for MEX-5 RNA-binding inhibitor project, dose response (AID 493130).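 Further: POS-1 as maltose binding protein fusion made in E. coli with FITC RNA.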 As to conditions: POS-1/mex-3 RNA fluorescence polarization, 1 h. Background: Polarisation of emitted light reports the rotation of a fluorescent probe.
In the case of `NS(=O)(=O)c1ccc(-c2ccc(C=C3C(=O)NC(=S)NC3=O)o2)cc1`, the AC50 (in general, the concentration at which the activity in the assay is half-maximal) is 8.28 µM.

Turning to `CC1C(=O)NN=C1C(=O)N/N=C\c1ccc(O)cc1O` (stereo not drawn), the AC50 was 9.42 µM.

In the case of `CCOc1cc(/C=C2\CCCc3c2nc2ccccc2c3C(=O)O)ccc1OC`, the AC50 is 0.948 µM.

In the case of `C=CCn1c(=O)[nH]c2nc3cc(N=CN(C)C)c(C)cc3nc2c1=O`, the AC50 is 7.27 µM.

On to `N=C1CCC(=N)c2c1c(O)c1ccccc1c2O`, for which the AC50 was 5.58 µM.

As for `CC(=O)Nc1cccc(C2=CC(c3ccco3)n3ncnc3N2)c1` (stereo not drawn), the AC50 is 5.81 µM.

Regarding `CCCC1C2CN(C(C)C)CC=C2C(C#N)=C(N)C1(C#N)C#N` (stereo not drawn), the AC50 was 1.81 µM.

As for `O=c1[nH]c(/C=C/c2cccc3ccccc23)nc2ccccc12`, the AC50 is > 10 µM (inactive).

Turning to `O=c1ccc2cc3c([nH]c4ccc(Br)cc43)oc-2c1O`, the AC50 was 1.64 µM.

As for `CN(C)c1ccc2nc3c(=O)[nH]c(=O)nc-3n(CC(O)C(O)C(O)CO)c2c1` (stereo not drawn), the AC50 was 9.63 µM.

For the compound `Cc1oc2c(cc(NS(=O)(=O)c3ccc(C(C)C)cc3)c3ccccc32)c1C(=O)O`, the AC50 is 10.4 µM.

In the case of `Nc1ccc(N(CCO)CCO)cc1`, the AC50 was 6.49 µM.

Staying with this assay, now noted: POS-1/mex-3 RNA fluorescence polarization, 1 h; at 10 µM (top of the series).
Regarding `Cc1ccc(C(=O)N/N=C\c2cc(Br)c(Br)o2)cn1`, the “activity change, negative = inhibition” value is “inactive”.

Turning to `CNC(=O)/C(C#N)=C/c1ccc(-c2ccc(Cl)cc2)o1`, the “activity change, negative = inhibition” value was “inactive”.

Take `Nc1ccc2oc(-c3ccccc3Cl)cc(=O)c2c1O`: the “activity change, negative = inhibition” value was “inactive”.

Turning to `Cc1ccc(S(=O)(=O)c2cc3c(=O)n4ccccc4nc3n(Cc3ccco3)c2=N)cc1C`, the “activity change, negative = inhibition” value is “inactive”.

Turning to `O=C1SC(SCc2ccccc2)=N/C1=C\c1ccc(C(=O)O)cc1`, the “activity change, negative = inhibition” value is “inactive”.

As for `O=C(C[n+]1ccc(C(=O)N/N=C/c2ccc(OCc3ccccc3)cc2)cc1)c1ccccc1`, the “activity change, negative = inhibition” value was “inactive”.

`Cc1cc(C)cc(NC(=O)N(C)Cc2ccccc2)c1`: the “activity change, negative = inhibition” value was “inactive”.

For the compound `CCS(=O)(=O)C1=NN2C(=N)/C(=C\c3ccc(SCc4ccco4)o3)C(=O)N=C2S1`, the “activity change, negative = inhibition” value is “inactive”.

As for `Nc1ccccc1C(=O)NNC(=O)C(=O)/C=C(\O)c1ccccc1`, the “activity change, negative = inhibition” value was “inactive”.

Consider `O=c1[nH]cnc2c1C(c1ccc(Cl)cc1)c1c(nc[nH]c1=O)O2`, for which the “activity change, negative = inhibition” value was “inactive”.

Consider `Cc1c(N=NC2=C(O)CCCC2=O)c(=O)n(-c2ccccc2)n1C`, for which the “activity change, negative = inhibition” value was “inactive”.

Turning to `COc1cc(/C=C2/C(C)=C(C#N)c3nc(N)c(C#N)c(C)c32)ccc1OCC(=O)O`, the “activity change, negative = inhibition” value is “inactive”.

`N#CCCn1c2ccccc2c2nc3ccccc3nc21`: the “activity change, negative = inhibition” value was “inactive”.

Turning to `Cc1cc(/C=C2\C(=O)NC(=O)N(Cc3ccccc3)C2=O)c(C)n1-c1ccc(Cl)c(C(=O)O)c1`, the “activity change, negative = inhibition” value is “inactive”.

Turning to `O=C(O)c1cccc(NC(=S)N/N=C/c2c[nH]c3ccccc23)c1`, the “activity change, negative = inhibition” value was “inactive”.

Regarding `CCOC(=O)c1cnc(SCC(=O)NNC(=O)c2ccco2)nc1N`, the “activity change, negative = inhibition” value is “inactive”.

As to `O=C(N/N=C/c1c(O)n(Cc2ccco2)c(=O)[nH]c1=O)c1ccccc1`, the “activity change, negative = inhibition” value was “inactive”.

Consider `O=[N+]([O-])c1cc(S(=O)(=O)c2ccc(O)c([N+](=O)[O-])c2)ccc1O`, for which the “activity change, negative = inhibition” value was “inactive”.

`COCCn1c(=N)c(S(=O)(=O)c2ccc(F)cc2)cc2c(=O)n3ccccc3nc21`: the “activity change, negative = inhibition” value was “inactive”.

Regarding `CCN(CC(=O)Nc1ccc(NC(C)=O)cc1)Cc1c(O)ccc2cc(Br)ccc12`, the “activity change, negative = inhibition” value is “inactive”.

Take `CN(CC(=O)Nc1cccc(F)c1)C(=O)/C=C/c1cn(Cc2ccccc2)nc1-c1cccnc1`: the “activity change, negative = inhibition” value was “inactive”.

Consider `COc1cccc(-c2cn3nc4c(nc3n2)CCCC4)c1`, for which the “activity change, negative = inhibition” value is “inactive”.

On to `CN(C)c1ccc(C(c2nnnn2CCOC(=O)Nc2ccc(Cl)cc2)N2CCOCC2)cc1` (stereo not drawn), for which the “activity change, negative = inhibition” value was “inactive”.

On to `COc1cccc(CNC23CC4CC(CC(C4)C2)C3)c1OCc1ccccc1`, for which the “activity change, negative = inhibition” value is “inactive”.

Turning to `Cc1cccc(C)c1NC(=O)/C(C#N)=C/c1cccs1`, the “activity change, negative = inhibition” value was “inactive”.

Consider `COc1ccc(OC)c(/C=N/NC(=O)c2ccc(=O)[nH]n2)c1`, for which the “activity change, negative = inhibition” value was “inactive”.

For `CCOC(=O)C1=C(C)N=c2s/c(=C\c3cccn3C)c(=O)n2C1c1cccc(OC)c1OC` (stereo not drawn), the “activity change, negative = inhibition” value was “inactive”.

Consider `Cc1nn(C)cc1C(=O)NNC(=S)Nc1ccccc1`, for which the “activity change, negative = inhibition” value is “inactive”.

Turning to `Cc1cc(C)c[n+](-c2[nH]c(=O)sc2/C=N/N=C(\N)[S-])c1`, the “activity change, negative = inhibition” value is “inactive”.

`CCOC(=O)[C@]1(C#N)[C@@H]2C=CC(C(N)=O)=CN2[C@@H](C(N)=O)[C@@H]1c1ccc(F)cc1`: the “activity change, negative = inhibition” value was “inactive”.

As for `Cc1ccc(C(=O)N/C(=C\c2ccc(-c3ccc([N+](=O)[O-])cc3)o2)C(=O)NC2CCS(=O)(=O)C2)cc1` (stereo not drawn), the “activity change, negative = inhibition” value was “inactive”.

On to `CC(=O)Nc1ccc2c(c1)C(=O)N(c1cccc(C)c1)C2=O`, for which the “activity change, negative = inhibition” value is “inactive”.

Take `CCOc1ccc(/C=C2\SC(=S)N(Nc3ccccc3)C2=O)cc1OC`: the “activity change, negative = inhibition” value was “inactive”.

With `COc1cc2c(cc1OC)-c1c(OC)c(OC)cc3c1C(C2)N(C)CC3` (stereo not drawn), the “activity change, negative = inhibition” value is “inactive”.

As to `Cc1c(O)ccc(-c2[nH]ncc2-c2nc3ccccc3s2)c1O`, the “activity change, negative = inhibition” value was “inactive”.

Regarding `CCOC(=O)N1CCN(c2nc3ccccc3nc2C(C#N)C(=O)NCCc2ccccc2)CC1` (stereo not drawn), the “activity change, negative = inhibition” value was “inactive”.

Take `Oc1ccc(/C=N/Nc2ncnc3nc[nH]c23)cc1`: the “activity change, negative = inhibition” value was “inactive”.

In the case of `Cc1cc(-c2nnc(SCC(=O)Nc3nccs3)o2)no1`, the “activity change, negative = inhibition” value is “inactive”.

Take `O=C1c2cccc3c(Cl)ccc(c23)C(=O)N1O`: the “activity change, negative = inhibition” value is “inactive”.

Consider `CC(C)N1CCc2c(sc(NC(=O)c3ccc(S(=O)(=O)N4CCCCC4C)cc3)c2C(N)=O)C1` (stereo not drawn), for which the “activity change, negative = inhibition” value is “inactive”.

Regarding `CC1(C)NC(=O)NC2(C)NC(=O)NC(C)(C)C12` (stereo not drawn), the “activity change, negative = inhibition” value is “inactive”.

Consider `N=C1C(c2nc3ccccc3[nH]2)=C(O)CN1c1ccc(F)cc1`, for which the “activity change, negative = inhibition” value was “inactive”.

As to `CCN(CC)c1ccc(N2C(=O)c3ccccc3C2=O)cc1`, the “activity change, negative = inhibition” value was “inactive”.

As to `NC(=O)C(=O)N/N=C/c1c2ccccc2cc2ccccc12`, the “activity change, negative = inhibition” value was “inactive”.

With `CNC(=O)c1c(NC(=O)c2nc3ccccc3s2)sc2c1CCC2`, the “activity change, negative = inhibition” value was “inactive”.

In the case of `COc1cc(CCC(=O)Nc2ccc(Cl)c(C(F)(F)F)c2)cc(OC)c1OC`, the “activity change, negative = inhibition” value is “inactive”.

On to `COC(=O)c1ccccc1N=Nc1c(N)n[nH]c1N`, for which the “activity change, negative = inhibition” value is “inactive”.

As for `COC(=O)c1ccc(N2NC(=O)/C(=C/c3ccc(-c4ccc(Cl)c(C(=O)O)c4)o3)C2=O)cc1`, the “activity change, negative = inhibition” value was “inactive”.

As for `Cc1csc(NC(=O)c2ccc(-c3ccc(Cl)cc3Cl)o2)n1`, the “activity change, negative = inhibition” value is “inactive”.

With `CC(=O)Nc1ccc(/C=C/c2nc(-c3ccccc3O)n[nH]2)cc1`, the “activity change, negative = inhibition” value was “inactive”.

With `Cc1ccc(-c2nc(C=Nc3cccc(C)c3)c(O)o2)cc1`, the “activity change, negative = inhibition” value is “inactive”.

For the compound `Cn1ccc(=Nc2ccc(NC(=O)c3ccc(N=c4ccn(C)c5ccc([N+](=O)[O-])cc45)cc3)cc2)cc1`, the “activity change, negative = inhibition” value was “inactive”.

Consider `Cc1cc(C)c2cc3c(N)c(C(=O)N4CCc5ccccc5C4)sc3nc2c1`, for which the “activity change, negative = inhibition” value is “inactive”.

Turning to `COc1cc(/C=N/NC(=O)c2ccc(=O)[nH]n2)ccc1O`, the “activity change, negative = inhibition” value was “inactive”.

Regarding `Cc1ccc(S(=O)(=O)c2cc3c(=O)n4ccccc4nc3n(C3CCCCC3)c2=N)cc1`, the “activity change, negative = inhibition” value was “inactive”.

`CCOc1cc(/C=N/NC(=O)N/N=C/c2ccc(O)c(OCC)c2)ccc1O`: the “activity change, negative = inhibition” value is “inactive”.

Turning to `N#C/C(C(N)=O)=C1/CCc2ccccc2N1`, the “activity change, negative = inhibition” value is “inactive”.

Consider `CN(C)c1ccc(/C=C(\C#N)C(=O)c2ccccc2)cc1`, for which the “activity change, negative = inhibition” value is “inactive”.

As for `COc1ccccc1N1C(=O)C2C(C(=O)c3ccccc3)=NN(c3ccccc3OC)C2C1=O` (stereo not drawn), the “activity change, negative = inhibition” value is “inactive”.

For the compound `Cc1nc2ccc3nc(NC(=O)c4ccc5c(c4)OCCO5)sc3c2s1`, the “activity change, negative = inhibition” value was “inactive”.

Take `O=C(N/N=C/c1cccnc1)c1ccc(O)cc1`: the “activity change, negative = inhibition” value was “inactive”.

`O=C(O)CSc1ncnc2nc[nH]c12`: the “activity change, negative = inhibition” value is “inactive”.

As for `CCOC(=O)C1CSc2[nH]c(=O)sc2C1c1ccccc1` (stereo not drawn), the “activity change, negative = inhibition” value is “inactive”.

Consider `Cc1cc(C)cc(N2C(=O)NC(=O)/C(=C/c3cccn3-c3ccc(Cl)cc3)C2=O)c1`, for which the “activity change, negative = inhibition” value was “inactive”.

In the case of `COc1ccc(/C=C2\C(=O)NC(=S)N2C(=O)c2ccc(C)cc2)cc1`, the “activity change, negative = inhibition” value is “inactive”.

For the compound `COc1ccc2nc3ccccc3nc2c1NC(=O)c1ccc(Cl)cc1`, the “activity change, negative = inhibition” value is “inactive”.

Regarding `Cc1cccc(C(=O)NNc2ncnc3c2cnn3C)c1`, the “activity change, negative = inhibition” value is “inactive”.

For `COc1ccccc1N1C(=O)S/C(=C\c2cccs2)C1=O`, the “activity change, negative = inhibition” value is “inactive”.

As to `Cc1sc2ncnc(N/N=C/c3ccccc3O)c2c1C`, the “activity change, negative = inhibition” value is “inactive”.

Turning to `O=C(NC1CCSc2ccccc21)c1ccc([N+](=O)[O-])cc1` (stereo not drawn), the “activity change, negative = inhibition” value is “inactive”.

Take `O=C(NNC(=O)c1ccc([N+](=O)[O-])o1)c1ccccc1`: the “activity change, negative = inhibition” value was “inactive”.
